In patent US7687643B2, “Process for preparing 3,3-dimethylindolines” (Amgen Inc., priority 2001, dated 2010):

What follows are compounds tested on Human Umbilical Vein Endothelial cells (VEGF-stimulated) (assay: HUVEC proliferation assay, VEGF-stimulated). Details: VEGF 50 ng/mL, 72 h, CyQuant, read-out: inhibited VEGF-stimulated HUVEC proliferation at a level.
Type: cell-based
How it was run: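 Pooled-donor HUVECs (passage 2–3) seeded in DMEM+10% FBS for 22 h, then pre-treated 2–3 h with five-point, five-fold compound dilutions (0.25% DMSO final). Stimulated with 50 ng/mL VEGF (bFGF 20 ng/mL on separate plates) for 72 h at 37 °C. CyQuant fluorescence (485/530 nm) after freeze-thaw; IC50 from 4-parameter fit.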

Structure (SMILES)	IC50 [nM]
CCN1CCC(C)(C)c2ccc(NC(=O)c3cccnc3NCc3ccnc(N)c3)cc21 [Example 1125, 2-[(2-Amino-pyridin-4-ylmethyl)-amino]-N-(1-ethyl-4,4-dimethyl-1,2,3,4-tetrahydro-quinolin-7-yl)-nicotinamide]	< 50
CNc1nccc(CNc2ncccc2C(=O)Nc2ccc3c(c2)CNCC3(C)C)n1 [Example 1038, N-(4,4-Dimethyl-1,2,3,4-tetrahydro-7-isoquinolinyl)-2-(((2-(methylamino)-4-pyrimidinyl)methyl)amino)-3-pyridinecarboxamide]	< 50
COc1cc(CNc2ncccc2C(=O)Nc2ccc3c(c2)NCCC3(C)C)ccn1 [Example 1113, N-(4,4-Dimethyl-1,2,3,4-tetrahydro-quinolin-7-yl)-2-[(2-methoxy-pyridin-4-ylmethyl)-amino]-nicotinamide]	< 50
CC(C)c1ccc(NC(=O)c2cccnc2NCc2ccnc3ccccc23)cc1 [Example 167, N-[4-(Isopropyl)phenyl]{2-[(4-quinolylmethyl)amino](3-pyridyl)}carboxamide]	< 50
CNc1nccc(CNc2ncccc2C(=O)Nc2cc(NS(C)(=O)=O)cc(C(F)(F)F)c2)n1 [Example 1093, 2-(((2-(methylamino)-4-pyrimidinyl)methyl)amino)-N-(3-((methylsulfonyl)amino)-5-(trifluoromethyl)phenyl)-3-pyridinecarboxamide]	< 50
CNc1nccc(CNc2ncccc2C(=O)Nc2ccc3c(c2)N(C(C)=O)CC3(C)C)n1 [Example 1045, N-(1-acetyl-3,3-dimethyl-2,3-dihydro-1H-indol-6-yl)-2-(((2-(methylamino)-4-pyrimidinyl)methyl)amino)-3-pyridinecarboxamide]	< 50
CN1CCC(CCCOc2cc(CNc3ncccc3C(=O)Nc3cccc(C(F)(F)F)c3)ccn2)CC1 [Example 923, 2-({2-[3-(1-Methyl-piperidin-4-yl)-propoxy]-pyridin-4-ylmethyl}-amino)-N-(3-trifluoromethyl-phenyl)-nicotinamide]	< 50
O=C(Nc1cccc(C(F)(F)F)c1)c1cccnc1NCc1ccc2c(c1)CCO2 [Example 827, {2-[(2,3-Dihydrobenzo[b]furan-5-ylmethyl)amino](3-pyridyl)}-N-[3-(trifluoromethyl)phenyl]carboxamide]	< 50
CN1CC(C)(C)Oc2ccc(NC(=O)c3cccnc3NCc3ccncc3)cc21 [Example 942, 2-[(Pyridin-4-ylmethyl)-amino]-N-(2,2,4-trimethyl-3,4-dihydro-2H-benzo[1,4]oxazin-6-yl)-nicotinamide]	< 50
CNc1nccc(CNc2ncccc2C(=O)Nc2cc(OCCNS(C)(=O)=O)cc(C(F)(F)F)c2)n1 [Example 1091, 2-(((2-(methylamino)-4-pyrimidinyl)methyl)amino)-N-(3-((2-((methylsulfonyl)amino)ethyl)oxy)-5-(trifluoromethyl)phenyl)-3-pyridinecarboxamide]	< 50
CCOC(=O)N1CC2(CC2)c2ccc(NC(=O)c3cccnc3NCc3ccnc(NC)n3)cc21 [Example 1108, Ethyl [1,2-dihydro-6-({2-[(2-methylamino-pyrimidin-4-ylmethyl)-amino]-pyridine-3-carbonyl}-amino)-3-spiro-1′-cyclopropyl-1H-indole]-1-carbamate]	< 50
O=C(Nc1ccc(Oc2ccccc2)cc1)c1cccnc1NCc1ccncc1 [Example 158, N-(4-Phenoxyphenyl){2-[(4-pyridylmethyl)amino](3-pyridyl)}carboxamide]	< 50
CC1(C)CCNc2cc(NC(=O)c3cccnc3NCc3ccnc(N4CCOCC4)c3)ccc21 [Example 1154, N-(4,4-Dimethyl-1,2,3,4-tetrahydro-quinolin-7-yl)-2-[(2-morpholin-4-yl-pyridin-4-ylmethyl)-amino]-nicotinamide]	< 50
CNc1nccc(CNc2ncccc2C(=O)Nc2ccc3c(c2)N(S(C)(=O)=O)CC3(C)C)n1 [Example 1060, N-(3,3-dimethyl-1-(methylsulfonyl)-2,3-dihydro-1H-indol-6-yl)-2-(((2-(methylamino)-4-pyrimidinyl)methyl)amino)-3-pyridinecarboxamide]	< 50
CC(C)(C)c1ccc(NC(=O)c2cccnc2NCc2ccnc(OCCN3CCOCC3)c2)cc1 [Example 905, N-(4-tert-Butyl-phenyl)-2-{[2-(2-morpholin-4-yl-ethoxy)-pyridin-4-ylmethyl]-amino}-nicotinamide]	< 50
CC1(C)CN(C(=O)c2cc[n+]([O-])cc2)c2cc(NC(=O)c3cccnc3NCc3ccncc3)ccc21 [Example 1100, N-[3,3-Dimethyl-1-(1-oxy-pyridine-4-carbonyl)-2,3-dihydro-1H-indol-6-yl]-2-[(pyridin-4-ylmethyl)-amino]-nicotinamide]	< 50
O=C(Nc1ccc(C(F)(F)C(F)(F)F)cc1)c1cccnc1NCc1ccncc1 [Example 78, N-[4-(1,1,2,2,2-Pentafluoroethyl)phenyl]{2-[(4-pyridylmethyl)amino](3-pyridyl)}carboxamide]	< 50
CC(=O)N1CC(C)(C)c2ccc(NC(=O)c3cccnc3NCc3ccncn3)cc21 [Example 1022, N-(1-Acetyl-3,3-dimethyl-2,3-dihydro-1H-indol-6-yl)-2-((4-pyrimidinylmethyl)amino)-3-pyridinecarboxamide]	< 50
CNc1nccc(CNc2ncccc2C(=O)Nc2cc(OC[C@H]3CCCN3C)cc(C(F)(F)F)c2)n1 [Example 1044, 2-(((2-(methylamino)-4-pyrimidinyl)methyl)amino)-N-(3-((((2R)-1-methyl-2-pyrrolidinyl)methyl)oxy)-5-(trifluoromethyl)phenyl)-3-pyridinecarboxamide]	< 50
CC1(C)CCNc2cc(NC(=O)c3cccnc3NCc3ccncn3)ccc21 [Example 1110, N-(4,4-Dimethyl-1,2,3,4-tetrahydro-quinolin-7-yl)-2-[(pyrimidin-4-ylmethyl)-amino]-nicotinamide]	< 50
CNc1cc(CNc2ncccc2C(=O)Nc2ccc3c(c2)NC(=O)CC3(C)C)ccn1 [Example 1119, N-(4,4-Dimethyl-2-oxo-1,2,3,4-tetrahydro-quinolin-7-yl)-2-[(2-methylamino-pyridin-4-ylmethyl)-amino]-nicotinamide]	< 50
O=C(Nc1ccc(C(F)(F)F)c(OCCN2CCCC2)c1)c1cccnc1NCc1ccnc2ccccc12 [Example 1021, N-(3-((2-(1-pyrrolidinyl)ethyl)oxy)-4-(trifluoromethyl)phenyl)-2-((4-quinolinylmethyl)amino)-3-pyridinecarboxamide]	< 50
CC(C)N1CCC[C@H]1COc1cc(NC(=O)c2cccnc2NCc2ccncc2)cc(C(F)(F)F)c1 [Example 1096, N-(3-((((2S)-1-(1-methylethyl)-2-pyrrolidinyl)methyl)oxy)-5-(trifluoromethyl)phenyl)-2-((4-pyridinylmethyl)amino)-3-pyridinecarboxamide]	< 50
COc1cc(CNc2ncccc2C(=O)Nc2ccc3c(c2)NC(=O)CC3(C)C)ccn1 [Example 1116, N-(4,4-Dimethyl-2-oxo-1,2,3,4-tetrahydro-quinolin-7-yl)-2-[(2-methoxy-pyridin-4-ylmethyl)-amino]-nicotinamide]	< 50
O=C(Nc1cc(CCCN2CCOCC2)cc(C(F)(F)F)c1)c1cccnc1NCc1ccncc1 [Example 964, N-[3-(3-Morpholin-4-yl-propyl)-5-trifluoromethyl-phenyl]-2-[(pyridin-4-ylmethyl)-amino]-nicotinamide]	< 50
CC1(C)CCNc2cc(NC(=O)c3cccnc3NCc3ccncc3)ccc21 [Example 1109, N-(4,4-Dimethyl-1,2,3,4-tetrahydro-quinolin-7-yl)-2-[(pyridin-4-ylmethyl)-amino]-nicotinamide]	< 50
O=C(Nc1cc(O)cc(C(F)(F)F)c1)c1cccnc1NCc1ccncc1 [Example 978, N-(3-Hydroxy-5-trifluoromethyl-phenyl)-2-[(pyridin-4-ylmethyl)-amino]-nicotinamide]	< 50
CC1(C)COc2cc(NC(=O)c3cccnc3NCc3ccncc3)ccc21 [Example 973, N-(3,3-Dimethyl-2,3-dihydro-benzofuran-6-yl)-2-[(pyridin-4-ylmethyl)-amino]-nicotinamide]	< 50
